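96-well plates; 48 h exposure; 5 concentrations. Endpoints by linear interpolation between flanking doses. Not reached: highest tested concentration assigned. GI50 is the concentration that inhibits growth by half.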 Active and inactive are the calls of the source. Rule as the data show it: active = GI50 up to about 1.1 µM and inactive = higher.
Key:
Assay in all cases: DTP human tumour cell line panel, 48 h
M14 = system: M14
HCT-15 = system: HCT-15
HOP-92 = system: HOP-92
HL-60 = system: HL-60
HT-29 = system: HT-29
SK-OV-3 = system: SK-OV-3
OVCAR-4 = system: OVCAR-4
A498 = system: A498
UO-31 = system: UO-31
HCC 2998 = system: HCC 2998
LOX IMVI = system: LOX IMVI
Malme-3M = system: Malme-3M
SK-MEL-28 = system: SK-MEL-28
SK-MEL-2 = system: SK-MEL-2
SF-539 = system: SF-539
COLO 205 = system: COLO 205
NCI-H460 = system: NCI-H460
OVCAR-8 = system: OVCAR-8
T47D = system: T47D
TK-10 = system: TK-10

SMILES | GI50 (M14) | GI50 (HCT-15) | GI50 (HOP-92) | GI50 (HL-60) | GI50 (HT-29) | GI50 (SK-OV-3) | GI50 (OVCAR-4) | GI50 (A498) | GI50 (UO-31) | GI50 (HCC 2998) | GI50 (LOX IMVI) | GI50 (Malme-3M) | GI50 (SK-MEL-28) | GI50 (SK-MEL-2) | GI50 (SF-539) | GI50 (COLO 205) | GI50 (NCI-H460) | GI50 (OVCAR-8) | GI50 (T47D) | GI50 (TK-10)
O=C(O)[C@H](NS(=O)(=O)c1ccc2ccccc2c1)c1ccccc1 | > 100 µM (inactive) | > 100 µM | 45.3 µM (inactive) | > 100 µM (inactive) | > 100 µM (inactive) | > 100 µM (inactive) | > 100 µM (inactive) | > 100 µM (inactive) | > 100 µM (inactive) | > 100 µM (inactive) | > 100 µM (inactive) | > 100 µM (inactive) | > 100 µM (inactive) | > 100 µM (inactive) | > 100 µM (inactive) | > 100 µM (inactive) | > 100 µM (inactive) |  |  | 
CN(C)Cc1cc(C(C)(C)C)cc(C2CCCCC2)c1O | 24.6 µM (inactive) | 15.3 µM |  | 18.2 µM (inactive) | 2.86 µM (inactive) | 15 µM (inactive) | 12.1 µM (inactive) |  | 17.7 µM (inactive) |  | 15.2 µM (inactive) | 2.15 µM (inactive) | 13.2 µM (inactive) | 18.3 µM (inactive) | 10.9 µM (inactive) | 14.2 µM (inactive) | 19.1 µM (inactive) | 13 µM (inactive) | 3.58 µM (inactive) | 15.5 µM (inactive)
NCCSc1cc(O)c2c(c1N)C(=O)c1ccccc1C2=O | 74.3 µM (inactive) | 29.3 µM | 60.5 µM (inactive) | 20.8 µM (inactive) | 34.1 µM (inactive) | > 100 µM (inactive) | 99.3 µM (inactive) | 91.2 µM (inactive) | > 100 µM (inactive) | > 100 µM (inactive) |  | 26 µM (inactive) | > 100 µM (inactive) | 65.6 µM (inactive) | 92.5 µM (inactive) |  | 36 µM (inactive) | 27.9 µM (inactive) |  | > 100 µM (inactive)
O=C1NC(=S)NC(=O)C1=Cc1ccc2ccccc2n1 | > 100 µM (inactive) | > 100 µM | > 100 µM (inactive) | > 100 µM (inactive) | > 100 µM (inactive) | > 100 µM (inactive) | > 100 µM (inactive) | > 100 µM (inactive) | > 100 µM (inactive) | > 100 µM (inactive) | > 100 µM (inactive) | > 100 µM (inactive) | > 100 µM (inactive) | > 100 µM (inactive) | > 100 µM (inactive) | > 100 µM (inactive) | > 100 µM (inactive) | > 100 µM (inactive) |  | > 100 µM (inactive)
O=c1[nH]c(S)nc2c1sc(=S)n2-c1ccccc1 | > 100 µM (inactive) | > 100 µM | 55.3 µM (inactive) | > 100 µM (inactive) | > 100 µM (inactive) | > 100 µM (inactive) | > 100 µM (inactive) | > 100 µM (inactive) | > 100 µM (inactive) | > 100 µM (inactive) | > 100 µM (inactive) | > 100 µM (inactive) | > 100 µM (inactive) | > 100 µM (inactive) | > 100 µM (inactive) | > 100 µM (inactive) | > 100 µM (inactive) | > 100 µM (inactive) |  | > 100 µM (inactive)
CC12CC/C(=N/NC(N)=O)C3C1CCCC32 | > 100 µM (inactive) | > 100 µM | > 100 µM (inactive) | > 100 µM (inactive) | > 100 µM (inactive) | > 100 µM (inactive) | > 100 µM (inactive) | > 100 µM (inactive) | > 100 µM (inactive) | > 100 µM (inactive) | > 100 µM (inactive) | > 100 µM (inactive) | > 100 µM (inactive) | > 100 µM (inactive) | > 100 µM (inactive) | > 100 µM (inactive) | > 100 µM (inactive) | > 100 µM (inactive) |  | > 100 µM (inactive)
NC1Cc2ccccc2OC1=O (centres undefined) | > 100 µM (inactive) | > 100 µM |  |  | > 100 µM (inactive) | > 100 µM (inactive) |  |  | > 100 µM (inactive) | > 100 µM (inactive) |  | > 100 µM (inactive) | > 100 µM (inactive) | > 100 µM (inactive) | > 100 µM (inactive) | > 100 µM (inactive) | > 100 µM (inactive) | > 100 µM (inactive) | > 100 µM (inactive) | > 100 µM (inactive)
Cc1cc2nc(O)c(CCC(=O)O)nc2cc1C | > 100 µM (inactive) | > 100 µM | > 100 µM (inactive) | > 100 µM (inactive) | > 100 µM (inactive) | > 100 µM (inactive) | > 100 µM (inactive) | > 100 µM (inactive) | > 100 µM (inactive) | > 100 µM (inactive) | > 100 µM (inactive) | > 100 µM (inactive) | > 100 µM (inactive) | > 100 µM (inactive) | > 100 µM (inactive) | 70.6 µM (inactive) | > 100 µM (inactive) | > 100 µM (inactive) |  | > 100 µM (inactive)
CC(/C=C/NNC1=NN=C(c2ccccc2)C(c2ccccc2)N1)Sc1ccccc1N (centres undefined) | 3.41 µM (inactive) | 4.89 µM | 8.39 µM (inactive) | 2.36 µM (inactive) | 11 µM (inactive) | 17.1 µM (inactive) | 6.21 µM (inactive) | 13.6 µM (inactive) | 6.53 µM (inactive) | 15.7 µM (inactive) | 3.18 µM (inactive) | 7.05 µM (inactive) | 8.93 µM (inactive) | 7.29 µM (inactive) | 8.24 µM (inactive) | 15.3 µM (inactive) | 9.98 µM (inactive) | 4.36 µM (inactive) |  | 14.2 µM (inactive)
COc1ccc(-c2cc(-c3cc(Cl)cc(Br)c3O)nc(O)n2)cc1 | 19.2 µM (inactive) |  | 17.8 µM (inactive) | 23.2 µM (inactive) | 17.7 µM (inactive) | 19.5 µM (inactive) | 5.66 µM (inactive) | 16.6 µM (inactive) | 17.3 µM (inactive) | 19.9 µM (inactive) | 17.3 µM (inactive) | 19.4 µM (inactive) | 19.9 µM (inactive) |  | 14.7 µM (inactive) | 15.6 µM (inactive) | 17.9 µM (inactive) | 16.7 µM (inactive) |  | 26.2 µM (inactive)
CCSc1nnc(-c2ccccc2)nc1Cc1ccc(OC)cc1 | > 100 µM (inactive) | 82 µM | > 100 µM (inactive) | 40.5 µM (inactive) | > 100 µM (inactive) | 67.3 µM (inactive) | > 100 µM (inactive) | 77.6 µM (inactive) | > 100 µM (inactive) | > 100 µM (inactive) | 47.9 µM (inactive) | > 100 µM (inactive) | > 100 µM (inactive) | 87.1 µM (inactive) | > 100 µM (inactive) | 86.9 µM (inactive) | 46.5 µM (inactive) | > 100 µM (inactive) |  | > 100 µM (inactive)
Clc1cc(Cl)ncn1 | > 100 µM (inactive) | > 100 µM | > 100 µM (inactive) |  | > 100 µM (inactive) | > 100 µM (inactive) | > 100 µM (inactive) |  | > 100 µM (inactive) | > 100 µM (inactive) | > 100 µM (inactive) | > 100 µM (inactive) | > 100 µM (inactive) |  | > 100 µM (inactive) | > 100 µM (inactive) | > 100 µM (inactive) | > 100 µM (inactive) | > 100 µM (inactive) | > 100 µM (inactive)
CN(C)CC1CC/C(=C\c2ccc(Cl)cc2)C1=O (centres undefined) | 10.1 µM (inactive) | 3.18 µM | 7.73 µM (inactive) | 0.757 µM (active) | 5.71 µM (inactive) | 15.7 µM (inactive) | 15.1 µM (inactive) | 13.5 µM (inactive) | 16.6 µM (inactive) | 4.69 µM (inactive) | 2.4 µM (inactive) | 7.11 µM (inactive) | 3.3 µM (inactive) | 12 µM (inactive) | 13.7 µM (inactive) | 4.19 µM (inactive) | 17.4 µM (inactive) | 3.58 µM (inactive) |  | 9.86 µM (inactive)
CCOC(=O)c1csc(CCCCCCc2nc(C(=O)OCC)cs2)n1 | > 100 µM (inactive) | > 60.5 µM | > 58.2 µM (inactive) | > 48.3 µM (inactive) | > 70 µM (inactive) | > 65.5 µM (inactive) | > 100 µM (inactive) | > 100 µM (inactive) | > 100 µM (inactive) | > 100 µM (inactive) | 32.4 µM (inactive) | > 74.5 µM (inactive) | > 38.3 µM (inactive) | 97.5 µM (inactive) | > 58.3 µM (inactive) | > 52.6 µM (inactive) | 29.7 µM (inactive) | 31.8 µM (inactive) |  | > 92.5 µM (inactive)
COC(=O)C1=Cc2cc(OC)c(OC)c(OC)c2[C@H](c2cc(OC)c(OC)c(OC)c2)C1C(=O)OC (some centres undefined) | > 100 µM (inactive) | > 100 µM | 1.73 µM (inactive) | > 100 µM (inactive) | > 100 µM (inactive) | > 100 µM (inactive) | > 100 µM (inactive) | > 100 µM (inactive) | > 100 µM (inactive) | > 100 µM (inactive) | > 100 µM (inactive) | > 100 µM (inactive) | > 100 µM (inactive) |  | > 100 µM (inactive) | > 100 µM (inactive) | > 100 µM (inactive) | > 100 µM (inactive) |  | > 100 µM (inactive)
C1CN(P2(N3CC3)=NP(N3CC3)(N3CC3)=NP(N3CC3)(N3CC3)=N2)CCO1 (centres undefined) [FOTRETAMINE] | > 100 µM (inactive) | > 100 µM | > 100 µM (inactive) | 36.6 µM (inactive) | > 100 µM (inactive) | > 100 µM (inactive) | > 100 µM (inactive) | > 100 µM (inactive) | > 100 µM (inactive) | > 100 µM (inactive) | 72.4 µM (inactive) | > 100 µM (inactive) | > 100 µM (inactive) | > 100 µM (inactive) | 44.8 µM (inactive) | > 100 µM (inactive) | 4.57 µM (inactive) | > 100 µM (inactive) |  | > 100 µM (inactive)
